Reference: patent publication US20240208992A1, “MACROCYCLES AS CFTR MODULATORS” (Idorsia Pharmaceuticals Ltd, priority 2021, published 2024)

Target: human F508del-CFTR (Homo sapiens, UniProt P13569, DEL508-508)
Assay: F508del-CFTR cell surface expression (corrector activity), DiscoveRx ß-galactosidase complementation chemiluminescence assay in recombinant U2OS cell line;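 also: U2OS cells co-expressing ProLink-tagged F508del-CFTR and a membrane-anchored enzyme acceptor, where more surface CFTR restores β-galactosidase activity measured by chemiluminescence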
Conditions: for EC50: EC50, F508del-CFTR cell surface expression; for Emax: U2OS
[1] = U2OS cells, 16h compound incubation, geomean values
[2] = in relation to Emax of corrector lumacaftor (=100%), arithmetic mean values
[3] = U2OS cell line, 16h compound incubation, geomean values
[4] = in relation to the Emax of the corrector lumacaftor (=100%), U2OS cell line, 16h compound incubation, arithmetic mean values
[5] = U2OS cells, 16h compound incubation, geomean of several measurements
[6] = in relation to the Emax of the corrector lumacaftor (=100%), U2OS cells, 16h compound incubation, arithmetic mean

human F508del-CFTR, sequence (P13569 with tags, fused parts or gaps DEL508-508): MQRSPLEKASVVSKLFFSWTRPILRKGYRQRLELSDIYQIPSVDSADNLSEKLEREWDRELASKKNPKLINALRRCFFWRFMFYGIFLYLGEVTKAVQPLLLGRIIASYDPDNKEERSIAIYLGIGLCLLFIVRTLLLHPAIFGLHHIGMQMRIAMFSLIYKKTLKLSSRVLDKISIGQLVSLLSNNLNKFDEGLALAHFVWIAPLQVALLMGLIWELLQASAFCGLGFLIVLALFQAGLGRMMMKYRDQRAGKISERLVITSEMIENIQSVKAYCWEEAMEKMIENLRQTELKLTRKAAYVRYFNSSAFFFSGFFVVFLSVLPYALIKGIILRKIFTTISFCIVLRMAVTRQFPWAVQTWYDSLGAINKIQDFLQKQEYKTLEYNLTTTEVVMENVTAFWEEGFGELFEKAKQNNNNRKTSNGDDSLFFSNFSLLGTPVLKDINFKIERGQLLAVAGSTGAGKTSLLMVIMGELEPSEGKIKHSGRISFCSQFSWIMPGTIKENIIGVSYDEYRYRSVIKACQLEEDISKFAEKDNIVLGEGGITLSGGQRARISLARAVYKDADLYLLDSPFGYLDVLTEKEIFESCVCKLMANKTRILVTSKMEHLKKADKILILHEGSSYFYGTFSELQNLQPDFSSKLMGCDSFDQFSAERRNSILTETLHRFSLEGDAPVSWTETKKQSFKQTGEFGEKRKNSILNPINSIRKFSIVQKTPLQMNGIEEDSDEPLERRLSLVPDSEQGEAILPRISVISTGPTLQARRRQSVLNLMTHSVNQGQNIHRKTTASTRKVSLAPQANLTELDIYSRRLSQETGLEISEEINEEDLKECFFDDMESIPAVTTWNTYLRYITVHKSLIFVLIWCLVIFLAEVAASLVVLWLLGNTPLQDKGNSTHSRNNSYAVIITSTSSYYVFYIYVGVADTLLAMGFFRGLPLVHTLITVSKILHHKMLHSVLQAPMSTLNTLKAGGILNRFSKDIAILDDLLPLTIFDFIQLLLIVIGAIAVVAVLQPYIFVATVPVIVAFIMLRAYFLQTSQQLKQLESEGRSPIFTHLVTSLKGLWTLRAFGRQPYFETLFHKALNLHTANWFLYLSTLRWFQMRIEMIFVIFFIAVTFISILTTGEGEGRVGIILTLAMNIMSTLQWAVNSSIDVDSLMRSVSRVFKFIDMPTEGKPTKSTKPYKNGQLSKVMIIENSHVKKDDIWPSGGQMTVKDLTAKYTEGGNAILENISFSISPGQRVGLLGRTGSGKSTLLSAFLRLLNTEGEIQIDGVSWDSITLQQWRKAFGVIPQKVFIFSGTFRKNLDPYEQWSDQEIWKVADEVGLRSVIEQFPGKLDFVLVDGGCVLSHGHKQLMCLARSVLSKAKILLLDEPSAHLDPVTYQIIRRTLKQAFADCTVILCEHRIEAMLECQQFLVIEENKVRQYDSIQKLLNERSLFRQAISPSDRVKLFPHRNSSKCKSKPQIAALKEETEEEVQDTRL

EC50 [5] [nM]	Emax [6] [%]	Structure (SMILES)	EC50 [1] [nM]	Emax [2] [%]	other results
–	–	COc1cccc(CCNC(=O)[C@@H]2CC(=O)N(C)[C@@H](CC(C)C)C(=O)N3CCCC[C@H]3C(=O)N[C@H](Cc3ccccc3)COc3cc(OC)cc(OC)c3C(=O)N2)c1 [Example 601, (7S,11S,20R,22aS)-20-benzyl-7-isobutyl-14,16-dimethoxy-N-(3-methoxyphenethyl)-8-methyl-6,9,13,22-tetraoxo-1,3,4,6,7,8,9,10,11,12,13,19,20,21,22,22a-hexadecahydro-2H-benzo[p]pyrido[2,1-f][1]oxa[4,7,10,14]tetraazacycloheptadecine-11-carboxamide]	589	138	–
–	–	COc1cccc(CCNC(=O)[C@@H]2CC(=O)N(C)[C@@H](CC3CCCCC3)C(=O)N(C[C@@H]3CCCCO3)CC(=O)N[C@H](Cc3ccccc3)COc3cccc(OC)c3C(=O)N2)c1 [Example 314, (3R,9S,13S)-3-benzyl-9-(cyclohexylmethyl)-16-methoxy-N-(3-methoxyphenethyl)-10-methyl-5,8,11,15-tetraoxo-7-(((S)-tetrahydro-2H-pyran-2-yl)methyl)-2,3,4,5,6,7,8,9,10,11,12,13,14,15-tetradecahydrobenzo[p][1]oxa[4,7,10,14]tetraazacycloheptadecine-13-carboxamide]	–	–	EC50 [3]: 469 nM; Emax [4]: 111%
334	361	CCOCC[C@@H]1C(=O)N[C@H](Cc2ccccc2)COc2ccc3cnc(C)cc3c2C(=O)N[C@H](C(=O)NCCn2nnc(C3CC3)n2)CC(=O)N(C)[C@@H](CC(C)C)C(=O)N1C [Example 915, (3S,7S,10R,13R)-13-benzyl-N-(2-(5-cyclopropyl-2H-tetrazol-2-yl)ethyl)-10-(2-ethoxyethyl)-7-isobutyl-6,9,20-trimethyl-1,5,8,11-tetraoxo-1,2,3,4,5,6,7,8,9,10,11,12,13,14-tetradecahydro-[1]oxa[4,7,10,14]tetraazacycloheptadecino[16,17-f]isoquinoline-3-carboxamide]	–	–	–
109	463	COc1noc(CCNC(=O)[C@@H]2CC(=O)N(C)[C@@H](CC(C)C)C(=O)N(C)[C@H](CC(F)F)C(=O)N[C@H](Cc3ccccc3)COc3ccc4cnc(C)cc4c3C(=O)N2)c1F [Example 970, (3S,7S,10R,13R)-13-benzyl-10-(2,2-difluoroethyl)-N-(2-(4-fluoro-3-methoxyisoxazol-5-yl)ethyl)-7-isobutyl-6,9,20-trimethyl-1,5,8,11-tetraoxo-1,2,3,4,5,6,7,8,9,10,11,12,13,14-tetradecahydro-[1]oxa[4,7,10,14]tetraazacycloheptadecino[16,17-f]isoquinoline-3-carboxamide]	–	–	–
–	–	CC(C)C[C@H]1C(=O)N2CCCC[C@H]2C(=O)N[C@H](Cc2ccccc2)COc2ccc3ncc(F)cc3c2C(=O)N[C@H](C(=O)NCCc2noc(C3CC3)n2)CC(=O)N1C [Example 793, (9S,13S,19aS,22R)-22-benzyl-N-(2-(5-cyclopropyl-1,2,4-oxadiazol-3-yl)ethyl)-5-fluoro-13-isobutyl-12-methyl-7,11,14,20-tetraoxo-7,8,9,10,11,12,13,14,17,18,19,19a,20,21,22,23-hexadecahydro-16H-pyrido[2′,11:6,7][1]oxa[4,7,10,14]tetraazacycloheptadecino[16,17-f]quinoline-9-carboxamide]	235	105	–
–	–	COc1cccc(CCNC(=O)[C@@H]2CC(=O)N(C)[C@@H](CC(C)C)C(=O)N(C)C3(CC3)C(=O)N[C@H](Cc3ccccc3)COc3ccc4ncccc4c3C(=O)N2)c1 [Example 460, (3′S,7′S,13′R)-13′-benzyl-7′-isobutyl-N-(3-methoxyphenethyl)-6′,9′-dimethyl-1′,5′,8′,11′-tetraoxo-2′,3′,4′,5′,6′,7′,8′,9′,11′,12′,13′,14′-dodecahydro-1′H-spiro[cyclopropane-1,10′-[1]oxa[4,7,10,14]tetraazacycloheptadecino[16,17-f]quinoline]-3′-carboxamide]	310	398	–
–	–	COc1cccc(CCNC(=O)[C@@H]2CC(=O)N(C)[C@@H](CC(C)C)C(=O)N3CCN(C4CCC4)C[C@@H]3C(=O)N[C@H](Cc3ccccc3)COc3cnc4ccccc4c3C(=O)N2)c1 [Example 391, (9S,13S,19aR,22R)-22-benzyl-18-cyclobutyl-13-isobutyl-N-(3-methoxyphenethyl)-12-methyl-7,11,14,20-tetraoxo-7,8,9,10,11,12,13,14,17,18,19,19a,20,21,22,23-hexadecahydro-16H-pyrazino[2′,1′:6,7][1]oxa[4,7,10,14]tetraazacycloheptadecino[17,16-c]quinoline-9-carboxamide]	–	–	EC50 [3]: 70 nM; Emax [4]: 319%
119	497	COc1noc(CCNC(=O)[C@@H]2CC(=O)N(C)[C@@H](CC(C)C)C(=O)N(C)[C@H](CC(F)(F)F)C(=O)N[C@H](Cc3ccccc3)COc3cc(C)c4ncccc4c3C(=O)N2)n1 [Example 975, (3S,7S,10R,13R)-13-benzyl-7-isobutyl-N-(2-(3-methoxy-1,2,4-oxadiazol-5-yl)ethyl)-6,9,17-trimethyl-1,5,8,11-tetraoxo-10-(2,2,2-trifluoroethyl)-1,2,3,4,5,6,7,8,9,10,11,12,13,14-tetradecahydro-[1]oxa[4,7,10,14]tetraazacycloheptadecino[16,17-f]quinoline-3-carboxamide]	–	–	–
–	–	COc1cccc(CCNC(=O)[C@@H]2CC(=O)N(C)[C@@H](CC(C)C)C(=O)N(C)C3(CC3)C(=O)N[C@H](Cc3ccccc3)COc3ccc4cccnc4c3C(=O)N2)c1 [Example 471, (9′R,15′S,19′S)-9′-benzyl-15′-isobutyl-N-(3-methoxyphenethyl)-13′,16′-dimethyl-11′,14′,17′,21′-tetraoxo-8′,9′,10′,11′,14′,15′,16′,17′,18′,19′,20′,21′-dodecahydro-13′H-spiro[cyclopropane-1,12′-[1]oxa[4,7,10,14]tetraazacycloheptadecino[17,16-h]quinoline]-19′-carboxamide]	981	278	–
–	–	COc1cccc(CCNC(=O)[C@@H]2CC(=O)N(C)[C@@H](CC(C)C)C(=O)N(CCC3CCCCC3)CC(=O)N[C@H](Cc3ccccc3)COc3ccc(OC)cc3C(=O)N2)c1 [Example 249, (3R,9S,13S)-3-benzyl-7-(2-cyclohexylethyl)-9-isobutyl-17-methoxy-N-(3-methoxyphenethyl)-10-methyl-5,8,11,15-tetraoxo-2,3,4,5,6,7,8,9,10,11,12,13,14,15-tetradecahydrobenzo[p][1]oxa[4,7,10,14]tetraazacycloheptadecine-13-carboxamide]	–	–	EC50 [3]: 116 nM; Emax [4]: 175%
114	368	COc1ccc(CCNC(=O)[C@@H]2CC(=O)N(C)[C@@H](CC(C)C)C(=O)N(C)[C@H](Cc3nc(-c4ccc(F)cn4)no3)C(=O)N[C@H](Cc3ccccc3)COc3cnc4ccc(F)cc4c3C(=O)N2)cn1 [Example 843, (3S,7S,10R,13R)-13-benzyl-20-fluoro-10-((3-(5-fluoropyridin-2-yl)-1,2,4-oxadiazol-5-yl)methyl)-7-isobutyl-N-(2-(6-methoxypyridin-3-yl)ethyl)-6,9-dimethyl-1,5,8,11-tetraoxo-1,2,3,4,5,6,7,8,9,10,11,12,13,14-tetradecahydro-[1]oxa[4,7,10,14]tetraazacycloheptadecino[17,16-c]quinoline-3-carboxamide]	–	–	–
–	–	COc1nccc2c1C(=O)N[C@H](C(=O)NCCc1cc(C)no1)CC(=O)N(C)[C@@H](CC(C)C)C(=O)N1CCN(CC(C)C)C[C@@H]1C(=O)N[C@H](Cc1ccccc1)CO2 [Example 570, (7S,11S,20R,22aR)-20-benzyl-2,7-diisobutyl-14-methoxy-8-methyl-N-(2-(3-methylisoxazol-5-yl)ethyl)-6,9,13,22-tetraoxo-1,3,4,6,7,8,9,10,11,12,13,19,20,21,22,22a-hexadecahydro-2H-pyrazino[2,1-f]pyrido[3,4-p][1]oxa[4,7,10,14]tetraazacycloheptadecine-11-carboxamide]	374	323	–
196	470	COc1noc(CCNC(=O)[C@@H]2CC(=O)N(C)[C@@H](CC(C)C)C(=O)N(C)[C@H](Cc3nc(-c4ccc(F)cn4)no3)C(=O)N[C@H](Cc3ccccc3)COc3ccc4ncc(F)cc4c3C(=O)N2)n1 [Example 916, (3S,7S,10R,13R)-13-benzyl-20-fluoro-10-((3-(5-fluoropyridin-2-yl)-1,2,4-oxadiazol-5-yl)methyl)-7-isobutyl-N-(2-(3-methoxy-1,2,4-oxadiazol-5-yl)ethyl)-6,9-dimethyl-1,5,8,11-tetraoxo-1,2,3,4,5,6,7,8,9,10,11,12,13,14-tetradecahydro-[1]oxa[4,7,10,14]tetraazacycloheptadecino[16,17-f]quinoline-3-carboxamide]	–	–	–
–	–	CC(C)C[C@H]1C(=O)N(CCc2ccccc2)CC(=O)N[C@H](Cc2ccccc2)COc2cc3c(cc2C(=O)N[C@H](C(=O)NCCc2ccc4c(c2)OCO4)CC(=O)N1C)OCO3 (racemic) [Example 5, (7R,13S,17RS)-N-(2-(benzo[d][1,3]dioxol-5-yl)ethyl)-7-benzyl-13-isobutyl-14-methyl-9,12,15,19-tetraoxo-11-phenethyl-6,7,8,9,10,11,12,13,14,15,16,17,18,19-tetradecahydro-[1,3]dioxolo[4′,5′:4,5]benzo[1,2-p][1]oxa[4,7,10,14]tetraazacycloheptadecine-17-carboxamide]	–	–	EC50 [3]: 369 nM; Emax [4]: 109%

Structure (SMILES)	EC50 [5] [nM]	Emax [6] [%]	EC50 [1] [nM]	Emax [2] [%]	other results
COc1cccc(CCNC(=O)[C@@H]2CC(=O)N(C)[C@@H](CC(C)C)C(=O)N(C)[C@H](CCc3ccccc3)C(=O)N[C@H](Cc3ccccc3)COc3cc(C)nc(OC)c3C(=O)N2)c1 [Example 875, (3R,6R,9S,13S)-3-benzyl-9-isobutyl-16-methoxy-N-(3-methoxyphenethyl)-7,10,18-trimethyl-5,8,11,15-tetraoxo-6-phenethyl-2,3,4,5,6,7,8,9,10,11,12,13,14,15-tetradecahydropyrido[3,4-p][1]oxa[4,7,10,14]tetraazacycloheptadecine-13-carboxamide]	21	333	–	–	–
